Each block holds one compound with its values, some of them ahead of it.
How the values were obtained:
[1] = animal or person; conditions: Homo sapiens, MHM, po, read-out: TGI
Description: Antitumor activity against human MHM xenografted Balb/c mouse assessed as tumor growth inhibition at 50 mg/kg,po administered daily by caliper method

[2] = test system: SJSA-1; test: animal or person; conditions: Mus musculus, SJSA-1, po, read-out: TGI
Description: Antitumor activity against human SJSA-1 xenografted Balb/c mouse assessed as tumor growth inhibition at 50 mg/kg,po administered daily by caliper method

[3] = target: Tumour suppressor p53/oncoprotein Mdm2 (Homo sapiens, UniProt Q00987); test: Inhibition of recombinant human MDM2/p53 interaction; type: protein assay
[4] = Oral bioavailability in cynomolgus monkey at 2 mg/kg by LC-MS/MS method; type: ADME, organism-based, Macaca fascicularis; conditions: in vivo
[5] = Oral bioavailability in Sprague-Dawley rat at 2 mg/kg by LC-MS/MS method; type: ADME, organism-based; conditions: in vivo
[6] = Oral bioavailability in CD-1 mouse at 5 mg/kg by LC-MS/MS method; type: ADME, organism-based; conditions: in vivo
[7] = Oral bioavailability in Beagle dog at 2 mg/kg by LC-MS/MS method; type: ADME, organism-based, Canis lupus familiaris; conditions: in vivo
[8] = test system: IMR-32; test: Antiproliferative activity against human IMR-32 cells harboring wildtype TP53 assessed as reduction in cell viability and measured upto 72 hrs by XTT assay; type: functional, cell-based; conditions: IMR-32, 72 h
[9] = test system: SK-N-SH; test: Antiproliferative activity against human SK-N-SH cells harboring wildtype TP53 assessed as reduction in cell viability and measured upto 72 hrs by XTT assay; type: functional, cell-based
[10] = Antiproliferative activity against human Kelly cells harboring TP53 mutant assessed as reduction in cell viability and measured upto 72 hrs by XTT assay; type: functional, cell-based
[11] = test system: SH-SY5Y; test: Antiproliferative activity against human SH-SY5Y cells harboring wildtype TP53 assessed as reduction in cell viability and measured upto 72 hrs by XTT assay; type: functional, cell-based
[12] = Antiproliferative activity against human LA-N-5 cells harboring wildtype TP53 assessed as reduction in cell viability and measured upto 72 hrs by XTT assay; type: functional, cell-based; conditions: LA-N-5, 72 h
[13] = test system: IMR-5; test: Antiproliferative activity against human IMR-5 cells harboring wildtype TP53 assessed as reduction in cell viability and measured upto 72 hrs by XTT assay; type: functional, cell-based; conditions: IMR-5, 72 h
[14] = AUC in CB17SCID mouse at 125 mg/kg, po and measured upto 24 hrs; type: ADME, organism-based; design: dose 125 mg/kg, time < 24 hrs, route po; conditions: in vivo
[15] = Cmax in CB17SCID mouse at 125 mg/kg, po and measured upto 24 hrs; type: ADME, organism-based; design: dose 125 mg/kg, time < 24 hrs, route po; conditions: in vivo

Tumour suppressor p53/oncoprotein Mdm2, sequence (P04637 whole entry): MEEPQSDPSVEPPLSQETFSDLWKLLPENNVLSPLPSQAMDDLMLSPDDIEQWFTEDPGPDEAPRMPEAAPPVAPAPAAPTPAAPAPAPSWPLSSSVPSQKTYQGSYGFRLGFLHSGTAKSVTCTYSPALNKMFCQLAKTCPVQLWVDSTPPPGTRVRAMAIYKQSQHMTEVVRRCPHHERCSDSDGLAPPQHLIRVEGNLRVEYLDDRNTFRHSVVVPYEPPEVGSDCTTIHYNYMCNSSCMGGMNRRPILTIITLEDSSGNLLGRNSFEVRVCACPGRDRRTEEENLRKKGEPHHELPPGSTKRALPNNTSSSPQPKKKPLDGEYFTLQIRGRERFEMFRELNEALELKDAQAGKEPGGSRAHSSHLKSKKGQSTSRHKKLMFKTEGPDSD
Tumour suppressor p53/oncoprotein Mdm2, sequence (Q00987 whole entry): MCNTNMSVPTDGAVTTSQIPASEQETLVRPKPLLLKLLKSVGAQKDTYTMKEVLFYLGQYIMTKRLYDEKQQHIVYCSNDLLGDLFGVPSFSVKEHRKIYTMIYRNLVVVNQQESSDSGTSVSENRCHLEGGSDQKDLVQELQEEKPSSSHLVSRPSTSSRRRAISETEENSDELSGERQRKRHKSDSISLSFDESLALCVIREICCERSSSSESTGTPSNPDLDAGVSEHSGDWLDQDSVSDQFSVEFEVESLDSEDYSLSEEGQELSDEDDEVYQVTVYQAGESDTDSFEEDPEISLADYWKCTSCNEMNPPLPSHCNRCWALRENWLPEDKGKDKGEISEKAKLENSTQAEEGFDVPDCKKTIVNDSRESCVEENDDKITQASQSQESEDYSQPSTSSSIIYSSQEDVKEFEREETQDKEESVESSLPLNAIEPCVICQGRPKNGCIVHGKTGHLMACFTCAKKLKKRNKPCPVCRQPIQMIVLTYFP

SMILES: CCOc1cc(C(C)(C)C)ccc1C1=N[C@@](C)(c2ccc(Cl)cc2)[C@@](C)(c2ccc(Cl)cc2)N1C(=O)N1CCN(CCCS(C)(=O)=O)CC1 [RO-5045337]
inhibition in vivo at 50 mg/kg [1]: 69%
inhibition in vivo at 50 mg/kg [2]: 74%

IC50 [3]: 0.13 nM
SMILES: COc1ccccc1-n1nc2c(c1C(C)C)[C@H](c1ccc(Cl)cc1C)N(c1cc(Cl)cc(OCCN(C)C)c1)C2=O

bioavailability [4]: > 44%
bioavailability [5]: > 42%
bioavailability [6]: > 43%
bioavailability [7]: 18%
SMILES: CC(C)[C@@H](CS(=O)(=O)C(C)C)N1C(=O)[C@@](C)(CC(=O)O)C[C@H](c2cccc(Cl)c2)[C@H]1c1ccc(Cl)cc1 [NAVTEMADLIN]

SMILES: CC1(C)CCC2(CC1)N[C@H](C(=O)N[C@@H]1CC[C@@H](C(N)=O)OC1)[C@H](c1ccnc(Cl)c1F)[C@]21C(=O)Nc2cc(Cl)ccc21
IC50 [8]: 56.2 nM
IC50 [9]: 21.9 nM
IC50 [10]: > 2000 nM
IC50 [11]: 17.7 nM
IC50 [12]: 44.1 nM
IC50 [13]: 25.7 nM

AUC at 24 h [14]: 200 µM·h
Cmax [15]: 40 µM
SMILES: CCC[C@H]1N(C(=O)c2ncccc2C(F)(F)F)CCC[C@@]1(Oc1csc(C(F)(F)F)c1)C(=O)N1CCC(O)(c2ccccc2O[C@H](C)CCC2(C(=O)O)CCC2)CC1
